Measurements: patent publication US11364248B2 (AMGEN INC., priority 2017, dated 2022)

Columns and labels:
Mcl-1/Bim interaction = Mcl-1/Bim interaction (Homo sapiens (Human), UniProt Q07820); experiment: Cell Free Mcl-1: Bim Affinity Assay (Mcl-1 HTRF); type: binding; details: TR-FRET, recombinant human Mcl-1(171-327), biotin-Bim(51-76); read-out: Mel-1 HTRF IC50
Outline: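 TR-FRET competition assay: 0.1 nM His-tagged human Mcl-1(171-327) and 0.05 nM biotin-Bim(51-76) were pre-incubated 60 min with compound in 20 mM Hepes pH 7.5, 150 mM NaCl, Brij35, 1 mM DTT, then with Eu-anti-His/streptavidin-Xlent overnight. The 665/620 nm ratio was fitted by four-parameter model to IC50 (duplicates).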

OPM-2 = experiment: Cell Viability Assay (OPM-2 10 FBS); type: cell-based, human; details: OPM-2 cells, 16 h, CellTiter-Glo, read-out: OPM-2 10% FBS IC50 IP
Outline: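 OPM-2 myeloma cells seeded at 3000 cells/well in RPMI 1640 with 10% FBS and exposed to serially diluted compounds for 16 h at 37° C., 5% CO2.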

Mcl-1/Bim interaction, sequence (Q07820 171-327): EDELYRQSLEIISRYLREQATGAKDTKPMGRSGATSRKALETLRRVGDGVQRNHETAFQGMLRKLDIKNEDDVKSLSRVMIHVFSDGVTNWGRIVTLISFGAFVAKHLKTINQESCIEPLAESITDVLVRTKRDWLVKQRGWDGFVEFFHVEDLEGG

**Q.** How did the IC50 (Mcl-1/Bim interaction) turn out when COCCN(C)[C@H]1CO[C@@H]([C@H]2CCC[C@H](C)[C@@H](C)S(=O)(=O)NC(=O)c3ccc4c(c3)N(C[C@@H]3CC[C@H]32)C[C@@]2(CCCc3cc(Cl)ccc32)CO4)OC1 [Example 71, (1S,3′R,6′R,7′S,11′S,12′R)-6-chloro-7′-(cis-5-((2-methoxyethyl)(methyl)amino)-1,3-dioxan-2-yl)-11′,12′-dimethyl-3,4-dihydro-2H,15′H-spiro[naphthalene-1,22′-[20]oxa[13]thia[1,14]diazatetracyclo [14.7.2.0~3,6~.0~19,24~]pentacosa[16,18,24]trien]-15′-one 13′,13′-dioxide] was run?
**A.** 0.217 nM

**Q.** What about the IC50 (OPM-2) of the same molecule?
**A.** 90 nM

**Q.** For COCCN(C)[C@H]1CO[C@@H]([C@H]2CCC[C@H](C)[C@@H](C)S(=O)(=O)NC(=O)c3ccc4c(c3)N(C[C@@H]3CC[C@H]32)C[C@@]2(CCCc3cc(Cl)ccc32)CO4)OC1 [Example 72, (1S,3′R,6′R,7′S,11′S,12′R)-6-chloro-7′-(cis-5-((2-methoxyethyl)(methyl)amino)-1,3-dioxan-2-yl)-11′,12′-dimethyl-3,4-dihydro-2H,15′H-spiro[naphthalene-1,22′-[20]oxa[13]thia[1,14]diazatetracyclo [14.7.2.0~3,6~.0~19,24~]pentacosa[16,18,24]trien]-15′-one 13′,13′-dioxide], which IC50 (Mcl-1/Bim interaction) is on record?
**A.** 0.568 nM

**Q.** And the IC50 (OPM-2)?
**A.** 341 nM

**Q.** Which IC50 (Mcl-1/Bim interaction) does the source give for C[C@@H]1CC[C@H]([C@H]2OC[C@@H](N(C)C)CO2)[C@@H]2CC[C@H]2CN2C[C@@]3(CCCc4cc(Cl)ccc43)COc3ccc(cc32)C(=O)NS(=O)(=O)C[C@@H]1C [Example 75, (1S,3′R,6′R,7′S,10′R,11′R)-6-chloro-7′-(cis-5-(dimethylamino)-1,3-dioxan-2-yl)-10′,11′-dimethyl-3,4-dihydro-2H,15′H-spiro[naphthalene-1,22′-[20]oxa[13]thia[1,14]diazatetracyclo [14.7.2.0~3,6~.0~19,24~]pentacosa[16,18,24]trien]-15′-one 13′,13′-dioxide] here?
**A.** 13 nM

**Q.** And the IC50 (OPM-2)?
**A.** 6770 nM

**Q.** What does the source list for C[C@@H]1CC[C@H]([C@H]2OC[C@@H](N(C)C)CO2)[C@@H]2CC[C@H]2CN2C[C@@]3(CCCc4cc(Cl)ccc43)COc3ccc(cc32)C(=O)NS(=O)(=O)C[C@@H]1C [Example 76, (1S,3′R,6′R,7′S,10′R,11′R)-6-chloro-7′-(cis-5-(dimethylamino)-1,3-dioxan-2-yl)-10′,11′-dimethyl-3,4-dihydro-2H,15′H-spiro[naphthalene-1,22′-[20]oxa[13]thia[1,14]diazatetracyclo [14.7.2.0~3,6~.0~19,24~]pentacosa[16,18,24]trien]-15′-one 13′,13′-dioxide]?
**A.** IC50 (Mcl-1/Bim interaction): 6.24 nM; IC50 (OPM-2): 2480 nM

**Q.** For C[C@@H]1[C@@H](C)CCC[C@H]([C@H]2OC[C@](N)(CO)CO2)[C@@H]2CC[C@H]2CN2C[C@@]3(CCCc4cc(Cl)ccc43)COc3ccc(cc32)C(=O)NS1(=O)=O [Example 79, (1S,3′R,6′R,7′S,11′S,12′R)-7′-(cis-5-amino-5-(hydroxymethyl)-1,3-dioxan-2-yl)-6-chloro-11′,12′-dimethyl-3,4-dihydro-2H,15′H-spiro[naphthalene-1,22′-[20]oxa[13]thia[1,14]diazatetracyclo [14.7.2.0~3,6~.0~19,24~]pentacosa[16,18,24]trien]-15′-one 13′,13′-dioxide], which IC50 (Mcl-1/Bim interaction) is on record?
**A.** 0.704 nM

**Q.** And the IC50 (OPM-2)?
**A.** 829 nM

**Q.** COC[C@H]1[C@@H](C)CCC[C@H]([C@H]2OC[C@@H](N(C)C)CO2)[C@@H]2CC[C@H]2CN2C[C@@]3(CCCc4cc(Cl)ccc43)COc3ccc(cc32)C(=O)NS1(=O)=O [Example 87, (1S,3′R,6′R,7′S,11′S,12′R)-6-chloro-7′-(cis-5-(dimethylamino)-1,3-dioxan-2-yl)-12′-(methoxymethyl)-11′-methyl-3,4-dihydro-2H,15′H-spiro[naphthalene-1,22′-[20]oxa[13]thia[1,14]diazatetracyclo [14.7.2.0~3,6~.0~19,24~]pentacosa[16,18,24]trien]-15′-one 13′,13′-dioxide] was tested. Which IC50 (Mcl-1/Bim interaction) did it give?
**A.** 5.71 nM

**Q.** What about the IC50 (OPM-2) of the same molecule?
**A.** 735 nM

**Q.** COC[C@H]1[C@@H](C)CCC[C@H]([C@H]2OC[C@@H](N(C)C)CO2)[C@@H]2CC[C@H]2CN2C[C@@]3(CCCc4cc(Cl)ccc43)COc3ccc(cc32)C(=O)NS1(=O)=O [Example 88, (1S,3′R,6′R,7′S,11′S,12′R)-6-chloro-7′-(cis-5-(dimethylamino)-1,3-dioxan-2-yl)-12′-(methoxymethyl)-11′-methyl-3,4-dihydro-2H,15′H-spiro[naphthalene-1,22′-[20]oxa[13]thia[1,14]diazatetracyclo [14.7.2.0~3,6~.0~19,24~]pentacosa[16,18,24]trien]-15′-one 13′,13′-dioxide] was tested. Which IC50 (Mcl-1/Bim interaction) did it give?
**A.** 4.37 nM

**Q.** And the IC50 (OPM-2)?
**A.** 335 nM
